PubChem BioAssay (NCI)
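Following 48 hours of exposure in 96-well plates, responses at five concentrations were used to interpolate endpoints linearly. GI50 marks 50% less growth. TGI marks complete inhibition of growth.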

Assays:
Test in all cases: inhibition of tumour cell growth, NCI panel, 48 h
HS 578T breast = tested on: HS 578T breast
SW-620 colon = tested on: SW-620 colon
DU-145 prostate = tested on: DU-145 prostate
SF-539 CNS = tested on: SF-539 CNS
M14 melanoma = tested on: M14 melanoma
TK-10 renal = tested on: TK-10 renal
NCI-H460 lung = tested on: NCI-H460 lung
HT29 colon = tested on: HT29 colon
CAKI-1 renal = tested on: CAKI-1 renal
OVCAR-3 ovarian = tested on: OVCAR-3 ovarian
SNB-19 CNS = tested on: SNB-19 CNS
PC-3 prostate = tested on: PC-3 prostate
NCI-H23 lung = tested on: NCI-H23 lung
RXF 393 renal = tested on: RXF 393 renal
SR leukemia = tested on: SR leukemia
T-47D breast = tested on: T-47D breast
SN12C renal = tested on: SN12C renal
HCT-116 colon = tested on: HCT-116 colon
UACC-62 melanoma = tested on: UACC-62 melanoma
HOP-92 NSCLC = tested on: HOP-92 NSCLC
K-562 leukemia = tested on: K-562 leukemia
UACC-257 melanoma = tested on: UACC-257 melanoma
LOX IMVI melanoma = tested on: LOX IMVI melanoma
NCI/ADR-RES ovarian = tested on: NCI/ADR-RES ovarian
SNB-75 CNS = tested on: SNB-75 CNS
MDA-MB-435 = tested on: MDA-MB-435
RPMI-8226 leukemia = tested on: RPMI-8226 leukemia
CCRF-CEM leukemia = tested on: CCRF-CEM leukemia
HCC-2998 colon = tested on: HCC-2998 colon
OVCAR-5 ovarian = tested on: OVCAR-5 ovarian
786-0 renal = tested on: 786-0 renal
NCI-H522 lung = tested on: NCI-H522 lung
OVCAR-8 ovarian = tested on: OVCAR-8 ovarian
NCI-H226 lung = tested on: NCI-H226 lung
SK-MEL-28 melanoma = tested on: SK-MEL-28 melanoma
SK-OV-3 ovarian = tested on: SK-OV-3 ovarian
IGROV1 ovarian = tested on: IGROV1 ovarian
OVCAR-4 ovarian = tested on: OVCAR-4 ovarian
UO-31 renal = tested on: UO-31 renal
HCT-15 colon = tested on: HCT-15 colon
BT-549 breast = tested on: BT-549 breast
KM12 colon = tested on: KM12 colon
U251 CNS = tested on: U251 CNS
A498 renal = tested on: A498 renal
COLO 205 colon = tested on: COLO 205 colon
MDA-MB-468 breast = tested on: MDA-MB-468 breast
HL-60(TB) leukemia = tested on: HL-60(TB) leukemia
SK-MEL-5 melanoma = tested on: SK-MEL-5 melanoma
EKVX NSCLC = tested on: EKVX NSCLC
HOP-62 NSCLC = tested on: HOP-62 NSCLC
MALME-3M melanoma = tested on: MALME-3M melanoma
SF-295 CNS = tested on: SF-295 CNS
SK-MEL-2 melanoma = tested on: SK-MEL-2 melanoma
MDA-MB-231 breast = tested on: MDA-MB-231 breast
ACHN renal = tested on: ACHN renal
MOLT-4 leukemia = tested on: MOLT-4 leukemia
MCF7 breast = tested on: MCF7 breast
SF-268 CNS = tested on: SF-268 CNS
A549 NSCLC = tested on: A549 NSCLC

O=C(Nc1ccc(OCc2ccc(F)cc2)cc1)Nc1ccc(Cl)c(C(F)(F)F)c1
GI50 (HS 578T breast): 2.88 µM | TGI (HS 578T breast): 8.28 µM | GI50 (SW-620 colon): 3.31 µM | TGI (SW-620 colon): 11.6 µM | GI50 (DU-145 prostate): 3.96 µM | TGI (DU-145 prostate): 14.3 µM | GI50 (SF-539 CNS): 3.13 µM | TGI (SF-539 CNS): 10.1 µM | GI50 (M14 melanoma): 2.79 µM | TGI (M14 melanoma): 10.4 µM | GI50 (TK-10 renal): 3.83 µM | TGI (TK-10 renal): 14.4 µM | GI50 (NCI-H460 lung): 2.51 µM | TGI (NCI-H460 lung): 6.68 µM | GI50 (HT29 colon): 3.33 µM | TGI (HT29 colon): 14.5 µM | GI50 (CAKI-1 renal): 2.56 µM | TGI (CAKI-1 renal): 9.1 µM | GI50 (OVCAR-3 ovarian): 3.11 µM | TGI (OVCAR-3 ovarian): 10.6 µM | GI50 (SNB-19 CNS): 3.22 µM | TGI (SNB-19 CNS): 11.9 µM | GI50 (PC-3 prostate): 2.21 µM | TGI (PC-3 prostate): 10.7 µM | GI50 (NCI-H23 lung): 2.38 µM | TGI (NCI-H23 lung): 7.17 µM | GI50 (RXF 393 renal): 2.57 µM | TGI (RXF 393 renal): 7.32 µM | GI50 (SR leukemia): 2.85 µM | TGI (SR leukemia): 12.6 µM | GI50 (T-47D breast): 2.46 µM | TGI (T-47D breast): 10.1 µM | GI50 (SN12C renal): 2.88 µM | TGI (SN12C renal): 10.3 µM | GI50 (HCT-116 colon): 3.11 µM | TGI (HCT-116 colon): 10.4 µM | GI50 (UACC-62 melanoma): 2.25 µM | TGI (UACC-62 melanoma): 7.75 µM | GI50 (HOP-92 NSCLC): 1.88 µM | TGI (HOP-92 NSCLC): 5.78 µM | GI50 (K-562 leukemia): 3.02 µM | TGI (K-562 leukemia): > 100 µM | GI50 (UACC-257 melanoma): 2.2 µM | TGI (UACC-257 melanoma): 6.68 µM | GI50 (LOX IMVI melanoma): 2.79 µM | TGI (LOX IMVI melanoma): 9.64 µM | GI50 (NCI/ADR-RES ovarian): 2.4 µM | TGI (NCI/ADR-RES ovarian): 8.36 µM | GI50 (SNB-75 CNS): 1.33 µM | TGI (SNB-75 CNS): 6.2 µM | GI50 (MDA-MB-435): 2.15 µM | TGI (MDA-MB-435): 4.9 µM | GI50 (RPMI-8226 leukemia): 2.77 µM | TGI (RPMI-8226 leukemia): 21.8 µM | GI50 (CCRF-CEM leukemia): 3.01 µM | TGI (CCRF-CEM leukemia): 11.3 µM | GI50 (HCC-2998 colon): 3.08 µM | TGI (HCC-2998 colon): 11.2 µM | GI50 (OVCAR-5 ovarian): 3.24 µM | TGI (OVCAR-5 ovarian): 12.2 µM | GI50 (786-0 renal): 3.12 µM | TGI (786-0 renal): 11.9 µM | GI50 (NCI-H522 lung): 3.03 µM | TGI (NCI-H522 lung): 12.3 µM | GI50 (OVCAR-8 ovarian): 3.52 µM | TGI (OVCAR-8 ovarian): 13.9 µM | GI50 (NCI-H226 lung): 2.46 µM | TGI (NCI-H226 lung): 7.87 µM | GI50 (SK-MEL-28 melanoma): 3.62 µM | TGI (SK-MEL-28 melanoma): 12.7 µM | GI50 (SK-OV-3 ovarian): 2.28 µM | TGI (SK-OV-3 ovarian): 7.28 µM | GI50 (IGROV1 ovarian): 4.45 µM | TGI (IGROV1 ovarian): 16.2 µM | GI50 (OVCAR-4 ovarian): 2.89 µM | TGI (OVCAR-4 ovarian): 10.3 µM | GI50 (UO-31 renal): 2.37 µM | TGI (UO-31 renal): 10.1 µM | GI50 (HCT-15 colon): 2.75 µM | TGI (HCT-15 colon): 11 µM | GI50 (BT-549 breast): 2.08 µM | TGI (BT-549 breast): 6.1 µM | GI50 (KM12 colon): 2.86 µM | TGI (KM12 colon): 8.39 µM | GI50 (U251 CNS): 2.74 µM | TGI (U251 CNS): 10.8 µM | GI50 (A498 renal): 2.16 µM | TGI (A498 renal): 6.69 µM | GI50 (COLO 205 colon): 1.82 µM | TGI (COLO 205 colon): 3.37 µM | GI50 (MDA-MB-468 breast): 1.85 µM | TGI (MDA-MB-468 breast): 4.71 µM | GI50 (HL-60(TB) leukemia): 2.7 µM | TGI (HL-60(TB) leukemia): 7.29 µM | GI50 (SK-MEL-5 melanoma): 1.68 µM | TGI (SK-MEL-5 melanoma): 3.07 µM | GI50 (EKVX NSCLC): 2.56 µM | TGI (EKVX NSCLC): 8.33 µM | GI50 (HOP-62 NSCLC): 3.03 µM | TGI (HOP-62 NSCLC): 11.4 µM | GI50 (MALME-3M melanoma): 2.07 µM | TGI (MALME-3M melanoma): 5.78 µM | GI50 (SF-295 CNS): 1.89 µM | TGI (SF-295 CNS): 4.82 µM | GI50 (SK-MEL-2 melanoma): 2.51 µM | TGI (SK-MEL-2 melanoma): 7.15 µM | GI50 (MDA-MB-231 breast): 2.46 µM | TGI (MDA-MB-231 breast): 5.84 µM | GI50 (ACHN renal): 3.21 µM | TGI (ACHN renal): 11 µM | GI50 (MOLT-4 leukemia): 2.74 µM | TGI (MOLT-4 leukemia): 13.8 µM | GI50 (MCF7 breast): 2.25 µM | TGI (MCF7 breast): 8.25 µM | GI50 (SF-268 CNS): 3.37 µM | TGI (SF-268 CNS): 12.1 µM | GI50 (A549 NSCLC): 2.83 µM | TGI (A549 NSCLC): 12.1 µM
